Results reported in the supplement of paper PMC13380429.

What was measured:
Conditions in all cases: 72 h
Caco-2 [1] = test: cell viability relative to DMSO; higher = less toxic
HepG2 [2] = test: as above
U2OS [3] = test: as above
Vero E6 [4] = test: as above
Caco-2 [5] = test: relative viability EC50 (midpoint between 100% and the lowest measured viability); higher = less toxic
HepG2 [6] = test: as above
U2OS [7] = test: as above
Vero E6 [8] = test: as above
Caco-2 [9] = test: drug sensitivity score (DSS) for viability; higher = more toxic; extreme values may be limits of the assay
HepG2 [10] = test: as above
U2OS [11] = test: as above
Vero E6 [12] = test: as above
Calu-3 [13] = test: cell viability relative to DMSO; higher = less toxic
Calu-3 [14] = test: drug sensitivity score (DSS) for viability; higher = more toxic; extreme values may be limits of the assay
Calu-3 [15] = test: relative viability EC50 (midpoint between 100% and the lowest measured viability); higher = less toxic

SMILES	cell viability (Caco-2 [1]; 1 nM) [%]	cell viability (Caco-2 [1]; 10 nM) [%]	cell viability (Caco-2 [1]; 100 nM) [%]	cell viability (Caco-2 [1]; 1000 nM) [%]	cell viability (Caco-2 [1]; 10000 nM) [%]	cell viability (HepG2 [2]; 1 nM) [%]	cell viability (HepG2 [2]; 10 nM) [%]	cell viability (HepG2 [2]; 100 nM) [%]	cell viability (HepG2 [2]; 1000 nM) [%]	cell viability (HepG2 [2]; 10000 nM) [%]	cell viability (U2OS [3]; 1 nM) [%]	cell viability (U2OS [3]; 10 nM) [%]	cell viability (U2OS [3]; 100 nM) [%]	cell viability (U2OS [3]; 1000 nM) [%]	cell viability (U2OS [3]; 10000 nM) [%]	cell viability (Vero E6 [4]; 1 nM) [%]	cell viability (Vero E6 [4]; 10 nM) [%]	cell viability (Vero E6 [4]; 100 nM) [%]	cell viability (Vero E6 [4]; 1000 nM) [%]	cell viability (Vero E6 [4]; 10000 nM) [%]	relative viability EC50 (Caco-2 [5]) [µM]	relative viability EC50 (HepG2 [6]) [nM]	relative viability EC50 (U2OS [7]) [µM]	relative viability EC50 (Vero E6 [8]) [µM]	drug sensitivity score (Caco-2 [9])	drug sensitivity score (HepG2 [10])	drug sensitivity score (U2OS [11])	drug sensitivity score (Vero E6 [12])	cell viability (Calu-3 [13]; 1 nM) [%]	cell viability (Calu-3 [13]; 10 nM) [%]	cell viability (Calu-3 [13]; 100 nM) [%]	cell viability (Calu-3 [13]; 1000 nM) [%]	cell viability (Calu-3 [13]; 10000 nM) [%]	drug sensitivity score (Calu-3 [14])	relative viability EC50 (Calu-3 [15]) [µM]
CCCCc1nc(Cl)c(C(=O)O)n1Cc1ccc(-c2ccccc2-c2nn[nH]n2)cc1 [carboxylosartan]	96.6	98.8	95.5	100	96.9	99.6	102	94.5	113	95.7	103	102	101	98.7	102	103	109	98.3	104	96.5	> 10	> 10000	> 10	> 10	0	0	0	0							
O=C1NC(=O)[C@@H](c2cn3c4c(cccc24)CCC3)[C@@H]1c1c[nH]c2ccccc12 [tivantinib]	107	94.3	103	60.2	44.7	108	96.5	99.5	39.5	41.5	102	102	95.1	51.9	26.2	97.3	99.8	92.8	36.5	28.2	0.688	311	0.648	0.331	7.7	11.1	10.1	12.7	98.3	94.1	98.9	72.6	59.6	5.3	
N#C/C(=C\c1ccc(O)c(O)c1)C(=O)NCc1ccccc1 [AG-490]	95.9	98.7	92.5	92.2	82.1	96.4	101	99.9	95	66.6	94.1	99.8	95.8	103	95.5	94.1	98.2	98.7	94.7	86.6	> 10		> 10	> 10	0.7	2.4	0	0.2	96.7	103	92.8	96.7	91.6	0	> 10
N#C[C@@H]1C[C@@H]2C[C@@H]2N1C(=O)[C@@H](N)C12CC3CC(CC(O)(C3)C1)C2	101	98.6	95.8	104	98.2						98.5	102	93.5	100	87.7	95.5	104	97.8	97.9	96.6	> 10		> 10	> 10	0		0	0	98.2	108	92.8	108	97.7	0	> 10
O=C(O)COc1ccc(OCCNC[C@H](O)COc2ccccc2)cc1 [ICI-215,001]	98.1	111	103	103	116	106	104	104	104	97.1						106	97.5	101	104	92.6	> 10	> 10000		> 10	0	0		0							
O=C(Nc1cccc(Br)c1)c1cccc(S(=O)(=O)N2CCCCCC2)c1 [AK-7]	90.6	94.9	93.5	92.9	75.1	96.7	103	99.9	104	72.9	97.7	92.8	98.5	92.8	86.3	98.7	102	99.4	100	94.3	> 10		> 10	> 10	1.4	0.9	0	0	102	94	106	105	77	0.6	> 10
CCCCc1ncc(/C=C(\Cc2cccs2)C(=O)O)n1Cc1ccc(C(=O)O)cc1 [eprosartan]	98.1	106	105	110	103						100	101	99.3	102	95.9	104	97.7	100	97.1	101	> 10		> 10	> 10	0		0	0	93.8	94.9	101	106	109	0	> 10
Cc1cc(N)c2ccccc2[n+]1CCCCCCCCCC[n+]1c(C)cc(N)c2ccccc21 [dequalinium]	96.9	94.4	98.9	92.2	36.4	98.6	100	92.7	76.2	33.8	104	102	96.2	102	60.1	101	104	104	102	87.4	2.16	1380		> 10	4.8	6.4	1.8	0	101	92.7	104	107	73.5	0.8	
